Laboratory results published in patent US10226433B2, “Use of cannabinoids in the treatment of degenerative skeletal muscle diseases” (GW Research Limited, priority 2014, dated 2019).

How the values were obtained:
Mdx mice [1] = assay: CD8 positive cells in spleens of mdx mice at week 4; assay type: in vivo, mouse; conditions: spleen
Protocol: (§1) Mdx mice were bred and housed according to Home Office regulations. At 6 weeks of age groups of female mdx mice (control n=18, deflazcort n=18, CBD n=19) were acclimatised to 3.5% Kolliphor/water (v/v) in drinking water.
(§2) Control groups were maintained on 3.5% Kolliphor for the duration of the study. Deflazacort (DFZ) groups were maintained on 3.5% Kolliphor for 2 weeks and then maintained on 1.2 mg/kg/day DFZ in 3.5% Kolliphor for 16 weeks (n=8).
(§3) CBD groups were acclimatised to 3.5% Kolliphor for 7 days. On day 7, 3.5% Kolliphor was supplemented with CBD at 75 mg/kg/day for 3 days; CBD was then increased to 120 mg/kg/day for 16 weeks (n=8).
Spleens were recovered at week 4 and CD8 positive cells were analysed.

Mouse C2C12 myoblasts [2] = assay: Western blot analysis of MyHC protein in differentiating C2C12 cells; assay type: cell-based; conditions: 72 h exposure to DM+1 μM CBD, relative to control conditions
Protocol: (§4) Mouse C2C12 myoblasts were propagated in a growth medium (GM) composed of Dulbecco's modified Eagle's medium supplemented with 10% fetal bovine serum (FBS), 50 U/ml penicillin plus 50 μg/ml streptomycin, and 1% L-glutamine (Invitrogen, Milan, Italy), in a humidified atmosphere of 95% air/5% CO2 at 37° C.
(§5) Exposure of proliferating C2C12 cells for 24 to 72 h to a lower (from 10% to 0.1%) FBS concentration, plus the addition of 5 μg/ml insulin and 5 μg/ml transferrin (differentiation medium, DM), induced their differentiation into myotubes.
Cells were washed two times in cold PBS and lysed with lysis solution (150 mM NaCl, 1 mM EDTA, pH 7.4, 10 mM Tris-HCl, pH 8, 1% SDS, and protease inhibitors). Lysates (50-60 ug) were boiled 5 min in Laemmli SDS loading buffer and separated by 8% SDS-polyacrylamide gel electrophoresis. Filters were incubated overnight at 4° C. with a mouse anti-MyHC (dilution, 1:1000; Millipore).
An anti-tubulin antibody (dilution, 1:5000; Sigma-Aldrich) was used to check for equal protein loading. Reactive bands were detected by chemiluminescence (ECL-plus; GE Healthcare). Images were analysed on a ChemiDoc station with Quantity one software (Bio-Rad, Segrate, Italy).
The effect of CBD 1 μM on myotube formation was confirmed by western blot analysis.

Mdx mice [3] = assay: Real time PCR of gastrocnemius muscle of mdx mice at week 4; assay type: in vivo, mouse
Protocol: as §1, §2, §3
Gastrocnemius muscle was recovered at week 4 and relative gene expressions were determined.
RNA was extracted from cells following treatment with CBD. Control RNA was extracted from the control group (RNeasy kit, Qiagen). 2 μg of RNA from each sample was reversed transcribed using oligo dT primers (rt nanoscript 2, Primer Design).
Stable endogenous control genes (Pak1lip1, Htatfs1) were identified using the mouse GeNorm Kit qbase+software (Primer Design).
Real time PCR was conducted using SYBR green (Life Technologies) on an AB Biosystems Thermocycler. All real time PCR experiments were conducted with the following reaction conditions. Initial 95° C. 10 mins, followed by 40 cycles of 95° C. for 15 secs, 60° C. for 1 min, followed by melt curve analysis.
Relative levels of gene expression were determined using the standard curve method and are expressed relative to the average of the endogenous controls.

[4] = system: Primary human satellite cells (SC); assay: Human satellite cell differentiation, qPCR of Myog, Tnnt-1 and MyHC mRNA; assay type: cell-based; conditions: 5 days of SC exposure to DM, vs vehicle
Protocol: (§6) Primary human satellite cells (SC) were purchased from Innoprot Inc (Bizkaia-Spain) and propagated in a growth medium (GM) which contains essential and non-essential amino acids, vitamins, organic and inorganic compounds, hormones, growth factors, trace minerals and a low concentration of fetal bovine serum (5%) (Innoprot lnc/Bizkaia-Spain) in a humidified atmosphere of 95% air/5% CO2 at 37° C.
(§7) Exposure of proliferating satellite cells 4-5 days to a lower (from 10% to 0.1%) FBS concentration, plus the addition of 5 μg/ml insulin and 5 μg/ml transferrin (differentiation medium, DM), induced their differentiation into myotubes.
As described in Example 1
To further investigate the effects of the cannabinoids CBD, CBDV and THCV on human skeletal muscle precursor cell differentiation qPCR analysis was used.
In particular, skeletal muscle cell differentiation was quantified by measuring the transcript levels of myogenin (Myog), Troponin (Tnnt-1) and Myosin Heavy Chain (MyHC). All of which are widely considered muscle-specific markers, required for myotube formation.

Mouse C2C12 myoblasts [5] = assay: Short-term (10 min) CBD exposure of differentiating C2C12 myoblasts, qPCR; assay type: cell-based; conditions: DM+1 μM for 10 min
Protocol: as §4, §5
(§8) Total RNA was isolated from […] by use of the TRI-Reagent (Life Technology, Milan, Italy), reacted with DNase-I (1 U/μl; Sigma-Aldrich) following the manufacturer's instructions, and then quantified by spectrophotometric analysis.
(§9) PCR detection system (Bio-Rad, Segrate MI, Italy) with specific primers by the use of SYBR Green detection (Bio-Rad, Segrate MI, Italy). Samples were amplified simultaneously in quadruplicate in one-assay run with a non-template control blank for each primer pair to control for contamination or primer-dimers formation, and the ct (cycle threshold) value for each experimental group was determined.
(§10) The housekeeping genes (the ribosomal protein S16) has been used as an internal control to normalize the ct values, using the 2-dCt formula; differences in mRNA content between groups were as expressed as 2-ddct, as previously described (Iannotti et al. 2013)
The potential effect of short term CBD exposure at 1 μM on differentiating C2C12 cells was also tested.
The day after plating, C2C12 myoblasts were exposed to DM in presence or not of 1 μM CBD for 10 min.

Mouse C2C12 myoblasts [6] = assay: C2C12 myoblast differentiation, qPCR of Myog and Tnnt-1 mRNA; assay type: cell-based; conditions: 24 h in DM, C2C12 cells, vs vehicle
Protocol: as §4, §5, §8
Both sides of the hippocampus were analysed. Final preparation of RNA was considered DNA- and protein-free if the ratio between readings at 260/280 nm was >1.7. The purified mRNA was reverse-transcribed by use of reverse transcriptase (enzyme-VILO) (Life Technology, Milan, Italy). Quantitative real-time PCR was carried out in CFX384 real time
as §9, §10
In order to gain information about the potential effects of phytocannabinoids on myoblast differentiation, C2C12 cells were induced to differentiate for 24-48 h in DM in the presence or absence of various phytocannabinoids.
qPCR analysis was then utilized to evaluated the expression level of the canonical developmentally regulated skeletal markers Myog and Tnnt-1.

[7] = system: Primary human satellite cells (SC); assay: Phase contrast microscopy of differentiating primary human satellite cells; assay type: cell-based; conditions: for Morphology of differentiating SC with respect to vehicle (DMSO) control: after 4 and 5 days of exposure to DM
Protocol: as §6, §7
Differentiating primary human satellite cells were also examined in phase contrast mode by means of conventional light microscopy. […] In particular, after 5 days of incubation in the presence of phytocannabinoids, the cells appeared more fused and with mature myotubes being larger in size.

[8] = Body mass of mdx mice over 16 weeks; assay type: in vivo, mouse; conditions: for Total body mass / Total body mass, difference to vehicle: at week 15, CBD 120 mg/kg/day, DFZ 1.2 mg/kg/day
Protocol: as §1, §2, §3
Mice and bottles were weighed twice weekly to monitor body mass and consumption. Mice are housed in groups, therefore average consumption is calculated.

C=C(C)[C@@H]1CCC(C)=C[C@H]1c1c(O)cc(CCCCC)cc1O [CBD, Cannabidiol]
Total percentage CD8 population, difference to vehicle (Mdx mice [1]; n=9): 19.7%
Total percentage CD8 population (Mdx mice [1]; n=9, vehicle 10.9%): 8.7%
Myosin Heavy Chain (MyHC) protein expression (Mouse C2C12 myoblasts [2]): significantly increased
Mitochondrially encoded NADH dehydrogenase 2 (MT-ND2) relative gene expression, upregulation (Mdx mice [3]; n=4): 253.2%
PGC1a relative gene expression, upregulation (Mdx mice [3]; n=9): 125.8%
Sirtuin-1 (Sirt1) relative gene expression, upregulation (Mdx mice [3]; n=9): 84.9%
MyHC transcript level ([4]; 1 μM): significantly increased
Myog transcript level ([4]; 1 μM): significantly increased
Tnnt-1 transcript level ([4]; 1 μM): significantly increased
Myog transcript level (Mouse C2C12 myoblasts [5]; then DM without drug for 3 h): significantly higher
Tnnt-1 transcript level (Mouse C2C12 myoblasts [5]; then DM without drug for 3 h): significantly higher
Myog transcript level (Mouse C2C12 myoblasts [5]; then DM without drug for 24 h): significantly higher
Tnnt-1 transcript level (Mouse C2C12 myoblasts [5]; then DM without drug for 24 h): significantly higher
Myogenin (Myog) mRNA expression level (Mouse C2C12 myoblasts [6]; 1 μM): significant increase
Troponin (Tnnt-1) mRNA expression level (Mouse C2C12 myoblasts [6]; 1 μM): significant increase
Morphology of differentiating SC with respect to vehicle (DMSO) control ([7]; 1 μM): clear morphological differences
Total body mass [8]: 29.42 g
Total body mass, difference to vehicle [8]: 5.6%
Total body mass compared with vehicle group ([8]; up to week 4, CBD 120 mg/kg/day in drinking water): did not differ

C=C(C)[C@@H]1CCC(C)=C[C@H]1c1c(O)cc(CCCCC)c(C(=O)O)c1O [CBDA, Cannabidiolic acid]
Myogenin (Myog) mRNA expression level (Mouse C2C12 myoblasts [6]; 1 μM): significantly reduced
Troponin (Tnnt-1) mRNA expression level (Mouse C2C12 myoblasts [6]; 1 μM): significantly reduced
Myogenin (Myog) mRNA expression level (Mouse C2C12 myoblasts [6]; 3 μM): significantly reduced
Troponin (Tnnt-1) mRNA expression level (Mouse C2C12 myoblasts [6]; 3 μM): significantly reduced

C=C(C)[C@@H]1CCC(C)=C[C@H]1c1c(O)cc(CCC)cc1O [CBDV, Cannabidivarin]
MyHC transcript level ([4]; 3 μM): significantly increased
Myog transcript level ([4]; 3 μM): significantly increased
Tnnt-1 transcript level ([4]; 3 μM): significantly increased
Myogenin (Myog) mRNA expression level (Mouse C2C12 myoblasts [6]; 1 μM): significant increase
Troponin (Tnnt-1) mRNA expression level (Mouse C2C12 myoblasts [6]; 1 μM): significant increase
Myogenin (Myog) mRNA expression level (Mouse C2C12 myoblasts [6]; 3 μM): significant increase
Troponin (Tnnt-1) mRNA expression level (Mouse C2C12 myoblasts [6]; 3 μM): significant increase
Morphology of differentiating SC with respect to vehicle (DMSO) control ([7]; 3 μM): clear morphological differences

CCCCCc1cc(O)c(C/C=C(\C)CCC=C(C)C)c(O)c1 [CBG, Cannabigerol]
Myogenin (Myog) mRNA expression level (Mouse C2C12 myoblasts [6]; 3 μM): significantly reduced
Troponin (Tnnt-1) mRNA expression level (Mouse C2C12 myoblasts [6]; 3 μM): significantly reduced

CCCc1cc(O)c2c(c1)OC(C)(C)[C@@H]1CCC(C)=C[C@@H]21 [THCV, Tetrahydrocannabivarin]
MyHC transcript level ([4]; 3 μM): significantly increased
Myog transcript level ([4]; 3 μM): significantly increased
Tnnt-1 transcript level ([4]; 3 μM): significantly increased
Myogenin (Myog) mRNA expression level (Mouse C2C12 myoblasts [6]; 1 μM): did not produced significant effects
Troponin (Tnnt-1) mRNA expression level (Mouse C2C12 myoblasts [6]; 1 μM): did not produced significant effects
Myogenin (Myog) mRNA expression level (Mouse C2C12 myoblasts [6]; 3 μM): did not produced significant effects
Troponin (Tnnt-1) mRNA expression level (Mouse C2C12 myoblasts [6]; 3 μM): did not produced significant effects
Morphology of differentiating SC with respect to vehicle (DMSO) control ([7]; 3 μM): clear morphological differences
Cell fusion and size of mature myotubes ([7]; after 5 days of incubation, CBD 1 μM, CBDV and THCV 3 μM): more appreciable

CC(=O)OCC(=O)[C@@]12N=C(C)O[C@@H]1C[C@H]1[C@@H]3CCC4=CC(=O)C=C[C@]4(C)[C@H]3[C@@H](O)C[C@@]12C [deflazacort, Deflazacort, reference compound]
Effect on total percentage CD8 population (Mdx mice [1]): unaffected
Total body mass [8]: 26.26 g
Total body mass, difference to vehicle [8]: 15.8%
Total body mass, lighter than vehicle and CBD groups ([8]; up to week 4, deflazacort 1.2 mg/kg/day in drinking water): 8.9%
